Reference: patent publication US7163959B2, “Prostagladin derivatives for the treatment of glaucoma or ocular hypertension” (priority 1990, dated 2007)

tested on: cynomolgus monkeys; experiment: Intraocular pressure (pneumatonometer) in cynomolgus monkeys; format: in vivo, cynomolgus monkey; conditions: cynomolgus monkeys, experimental eye (E), topical, baseline; dose μg: PGF2α-IE 1.5; (1) 3.2; (2) 3.2; (9) 10.4; (10) 3.1; (8) 3.2
Protocol: (§1) The intraocular pressur (IOP) was determined in animals with a pneumatonometer (Digilab Modular One™, Bio Rad), specially calibrated for the eye of the particular species. The cornea was anaesthetized with 1–2 drops of oxibuprocain before each XOP measurement. In healthy human volunteers IOP was measured with applanation tonometry or with an air puff tonometer (Keeler pulsair). For applanation tonometry either a pneumatonometer (Digilab) or Goldmann's applanation tonometer mounted on a slit lamp microscope was used. The cornea was anaesthetized with oxibuprocain before each measurement with applanation tonometry. No local anaesthesia was employed before measurement with the pulsair tonometer.

Compound	Intraocular pressure, time after administration 0 hours
CCCCC[C@H](O)/C=C/[C@@H]1[C@@H](C/C=C\CCCC(=O)OC(C)C)[C@@H](O)C[C@H]1O [PGF2α-isopropylester, reference compound]	E 11.4 ± 0.7 mmHg
16-[4-(methoxy)-phenyl]-17,18,19,20-tetranor-PGF2α-isopropylester [Substance 8]	E 11.2 ± 0.9 mmHg
16-phenyl-17,18,19,20-tetranor-PGF2α-isopropylester [Substance 1]	E 12.7 ± 1.1 mmHg

same assay, conditions: cynomolgus monkeys, experimental eye (E), topical; dose μg: PGF2α-IE 1.5; (1) 3.2; (2) 3.2; (9) 10.4; (10) 3.1; (8) 3.2

Compound	Intraocular pressure, time after administration 1–2 hours	Intraocular pressure, time after administration 3–4 hours	Intraocular pressure, time after administration 6 hours
CCCCC[C@H](O)/C=C/[C@@H]1[C@@H](C/C=C\CCCC(=O)OC(C)C)[C@@H](O)C[C@H]1O [PGF2α-isopropylester, reference compound]	8.3 ± 0.5 mmHg	8.0 ± 0.6 mmHg	9.3 ± 0.8 mmHg
16-[4-(methoxy)-phenyl]-17,18,19,20-tetranor-PGF2α-isopropylester [Substance 8]	10.5 ± 1.3 mmHg	9.8 ± 1.4 mmHg	9.2 ± 0.9 mmHg
16-phenyl-17,18,19,20-tetranor-PGF2α-isopropylester [Substance 1]	11.8 ± 1.1 mmHg	9.1 ± 0.8 mmHg	8.4 ± 0.7. mmHg

same assay, conditions: monkeys (primates), topical (Table V)

Compound	Intraocular pressure lowering effect, in words
16-phenyl-17,18,19,20-tetranor-PGF2α-isopropylester [Substance 1]	reduced the intraocular pressure

tested on: rabbit eye; experiment: Conjunctival hyperemia after topical application in rabbits; format: in vivo; conditions: topical (Table IV)
Protocol: Conjunctival hyperemia after topical application of the test substances was evaluated in rabbits. […] Conjunctival hyperemia was evaluated on a scale from 0 to 4, 0 indicating complete absence of any hyperemia, and 4 indicating marked hyperemia with conjunctival chemosis.

Compound	Conjunctival hyperemia, in words
CC(C)OC(=O)CCC/C=C\C[C@H]1C(=O)C=C[C@@H]1CC[C@@H](O)CCc1ccccc1 [Substance 6, 13,14-dihydro-17-phenyl-18,19,20-trinor-PGA2-isopropylester]	advantageous in this respect

same assay, conditions: topical, conjunctival hyperemia scale 0 to 4, dose 0.5 μg, PGF2α-IE 0.1 μg

Compound	Degree of hyperemia
CCCCC[C@H](O)/C=C/[C@@H]1[C@@H](C/C=C\CCCC(=O)OC(C)C)[C@@H](O)C[C@H]1O [PGF2α-isopropylester, reference compound]	2.8 ± 0.2
16-phenyl-17,18,19,20-tetranor-PGF2α-isopropylester [Substance 1]	1.3 ± 0.9
CC(C)OC(=O)CCC/C=C\C[C@H]1C(=O)C=C[C@@H]1CC[C@@H](O)CCc1ccccc1 [Substance 6, 13,14-dihydro-17-phenyl-18,19,20-trinor-PGA2-isopropylester]	0.3 ± 0.3
CC(C)OC(=O)CCC/C=C\C[C@H]1C(=O)C[C@@H](O)[C@@H]1/C=C/[C@@H](O)CCc1ccccc1 [Substance 5, 17-phenyl-18,19,20-trinor-PGE2-isopropylester]	2.7 ± 0.2
CCCCCC(C=CC1C(O)CC(=O)C1CC=CCCCC(=O)OC(C)C)OC(=O)CC (stereo not drawn) [15-propionate-PGE2-IE, reference compound]	2.7 ± 0.3

tested on: cat eye; experiment: Ocular discomfort (irritation) after topical application in cats; conditions: topical (Table III)
Protocol: The ocular discomfort after application of the test substances was evaluated in cats. The behaviour of cats after topical application of the test drug was followed and ocular discomfort was graded on a scale from 0 to 3, 0 indicating complete absence of any signs of discomfort, and 3 indicating maximal irritation as obvious from complete lid closure.
Therefore, the cat eye, being very sensitive to prostaglandins was used for evaluating ocular discomfort and the rabbit eye with pronounced tendency to hyperemic reactions was used for evaluating conjunctival and episcleral hyperemia.

Compound	Ocular irritation (discomfort), in words
16-phenyl-17,18,19,20-tetranor-PGF2α-isopropylester [Substance 1]	irritating
CC(C)OC(=O)CCC/C=C\C[C@H]1C(=O)C=C[C@@H]1CC[C@@H](O)CCc1ccccc1 [Substance 6, 13,14-dihydro-17-phenyl-18,19,20-trinor-PGA2-isopropylester]	no or very little irritating effect
CC(C)OC(=O)CCC/C=C\C[C@H]1C(=O)C[C@@H](O)[C@@H]1/C=C/[C@@H](O)CCc1ccccc1 [Substance 5, 17-phenyl-18,19,20-trinor-PGE2-isopropylester]	no or very little irritating effect

same assay, conditions: topical (Table III), listed as 16-phenyl-17,18,19,20-tetranor-PGF2α-IE

Compound	Ocular irritation (discomfort), in words
16-phenyl-17,18,19,20-tetranor-PGF2α-isopropylester [Substance 1]	clear ocular discomfort

tested on: cat eyes; experiment: Intraocular pressure (pneumatonometer) in cats; format: in vivo; conditions: cat eyes, experimental eye (E), topical, baseline; dose μg: (4) 5; (20) 1
Protocol: as §1

Compound	Intraocular pressure, time after administration 0 hours
CC(C)OC(=O)CCC/C=C\C[C@@H]1[C@@H](/C=C/[C@@H](O)COc2ccccc2)[C@H](O)C[C@@H]1O [Substance 4, 16-phenoxy-17,18,19,20-tetranor-PGF2α-isopropylester]	E 20.5 ± 1.2 mmHg
19-phenyl-20-nor-PGF2α-isopropylester [Substance 20]	E 16.9 ± 1.0 mmHg

same assay, conditions: cat eyes, experimental eye (E), topical; dose μg: (4) 5; (20) 1

Compound	Intraocular pressure, time after administration 1–2 hours	Intraocular pressure, time after administration 3–4 hours	Intraocular pressure, time after administration 6 hours
CC(C)OC(=O)CCC/C=C\C[C@@H]1[C@@H](/C=C/[C@@H](O)COc2ccccc2)[C@H](O)C[C@@H]1O [Substance 4, 16-phenoxy-17,18,19,20-tetranor-PGF2α-isopropylester]	25.7 ± 1.2 mmHg	19.2 ± 1.8 mmHg	15.0 ± 1.2 mmHg
19-phenyl-20-nor-PGF2α-isopropylester [Substance 20]	16.6 ± 0.7 mmHg	15.8 ± 0.8 mmHg	18.1 ± 1.2 mmHg

same assay, conditions: cats, topical (Table V)

Compound	Intraocular pressure lowering effect, in words
CC(C)OC(=O)CCC/C=C\C[C@@H]1[C@@H](/C=C/[C@@H](O)COc2ccccc2)[C@H](O)C[C@@H]1O [Substance 4, 16-phenoxy-17,18,19,20-tetranor-PGF2α-isopropylester]	effectively lowers the intraocular pressure
19-phenyl-20-nor-PGF2α-isopropylester [Substance 20]	reduced the intraocular pressure
